# In patent publication US8394789B2, “(Dihydro)pyrrolo[2,1-α]isoquinolines” (MSD Oss B.V., priority 2008, dated 2013):
# Target: T1, human FSH receptor (Homo sapiens, UniProt P23945)
# T1 construct: expressed in transfected cells
# T1 sequence (P23945 18-695): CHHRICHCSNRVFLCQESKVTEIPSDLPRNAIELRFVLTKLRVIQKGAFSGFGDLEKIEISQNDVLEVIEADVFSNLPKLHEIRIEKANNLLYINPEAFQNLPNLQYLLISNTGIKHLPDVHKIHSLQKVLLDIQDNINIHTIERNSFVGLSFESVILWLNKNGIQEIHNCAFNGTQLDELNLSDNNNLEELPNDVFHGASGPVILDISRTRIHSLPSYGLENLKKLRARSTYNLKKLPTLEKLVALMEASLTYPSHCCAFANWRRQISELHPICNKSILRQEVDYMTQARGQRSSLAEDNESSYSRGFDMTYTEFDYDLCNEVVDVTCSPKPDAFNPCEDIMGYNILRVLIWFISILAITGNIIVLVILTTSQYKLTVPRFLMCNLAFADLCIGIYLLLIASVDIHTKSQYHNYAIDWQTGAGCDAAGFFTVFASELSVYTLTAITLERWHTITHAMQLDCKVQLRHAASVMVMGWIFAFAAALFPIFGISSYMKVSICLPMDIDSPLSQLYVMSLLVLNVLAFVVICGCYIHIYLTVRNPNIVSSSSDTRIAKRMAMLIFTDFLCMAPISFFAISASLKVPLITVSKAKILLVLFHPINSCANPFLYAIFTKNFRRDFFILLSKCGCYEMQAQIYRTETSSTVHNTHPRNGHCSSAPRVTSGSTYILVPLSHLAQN
# Test: hFSHRago (CHO luc): agonistic activity at the human FSH receptor expressed in CHO cells, CRE-luciferase reporter
# Type: cell-based
# Details: CHO cells stably transfected with human FSH receptor and CRE/luciferase reporter; 4 hours of incubation
# Source text: The term EC50 means the concentration of the test compound that elicits half-maximal (50%) stimulation compared to the compound's maximally attainable effect. The values can be determined e.g. in a cell line transfected with a FSH receptor gene and cotransfected with a cAMP responsive element/promoter directing the expression of a reporter gene. Values can be determined using the software program such as MathIQ (version 2.0, ID Business Solutions Limited).
# Agonistic activity of the compounds at the human FSH receptor was determined in Chinese Hamster Ovary (CHO) cells stably transfected with the human FSH receptor and cotransfected with a cAMP responsive element (CRE)/promoter directing the expression of a firefly luciferase reporter gene. […] Cells (7,500 cells/well of a 384 well plate) were incubated in Dulbecco' minimal essential F12 modified medium (Invitrogen), supplemented with 1 μg/ml bovine insulin, 5 μg/ml human apo-transferrin, 80 U/ml penicillin G and 80 μg/ml streptomycin with the test compounds (concentration between 0.0316 nM and 10.0 μM) in duplicate in a humidified atmosphere (95%) at 5-7% CO2 and 37° C. The final concentration of DMSO was 1%. After 4 hours of incubation, plates were allowed to adjust to room temperature for 1 hour. Then, Luclite (PerkinElmer) solution was added to the wells and cells were allowed to lyse for at least 1 hour at room temperature. Subsequently, luciferase activity was measured in a luminescence counter. The signal is expressed as counts per second (cps). The EC50 (concentration of the test compound that elicits half-maximal (50%) luciferase stimulation compared to the compound's maximally attainable effect) and efficacy values (maximal effect of the test compound as percentage of the maximal effect of recombinant human FSH) of the compounds were determined using the software program MathIQ (version 2.0, ID Business Solutions Limited).
row,Compound,EC50 [nM]
1,"COc1cc2c(cc1OCCCN)-c1c(-c3cccs3)cc(C(=O)N(C)C(C)(C)C)n1CC2 [Example 70g, 9-(3-Amino-propoxy)-8-methoxy-1-thiophen-2-yl-5,6-dihydro-pyrrolo[2,1-α]iso-quinoline-3-carboxylic acid tert-butyl-methyl-amide]",111
2,"COc1cc2c(cc1OCCOS(C)(=O)=O)-c1c(-c3cccs3)cc(C(=O)N(C)C(C)(C)C)n1CC2 [Example 65e, Methanesulfonic acid 2-[3-(tert-butyl-methyl-carbamoyl)-8-methoxy-1-thiophen-2-yl-5,6-dihydro-pyrrolo[2,1-α]isoquinolin-9-yloxy]-ethyl ester]",15
3,"COc1cc2c(cc1CC(C)C)-c1c(-c3cccs3)cc(C(=O)N(C)C(C)(C)CO)n1CC2 [Example 81, 9-Isobutyl-8-methoxy-1-thiophen-2-yl-5,6-dihydro-pyrrolo[2,1-α]isoquinoline-3-carboxylic acid (2-hydroxy-1,1-dimethyl-ethyl)-methyl-amide]",6
4,"COc1cc2c(cc1OC(C)C)-c1c(-c3cccs3)cc(C(=O)N3CCCN(C(=O)C4CCCO4)CC3)n1CC2 (stereo not drawn) [Example 1, (9-Isopropoxy-8-methoxy-1-thiophen-2-yl-5,6-dihydro-pyrrolo[2,1-α]isoquinolin-3-yl)-[4-(tetrahydro-furan-2-carbonyl)-[1,4]diazepan-1-yl]-methanone]",0.9
5,"COc1cc2c(cc1OC(F)F)-c1c(-c3nccs3)cc(C(=O)N(C)C(C)(C)C)n1CC2 [Example 113, 9-Difluoromethoxy-8-methoxy-1-thiazol-2-yl-5,6-dihydro-pyrrolo[2,1-α]isoquinoline-3-carboxylic acid tert-butyl-methyl-amide]",39.6
6,"COc1cc2c(cc1OCCOC1CCCCO1)-c1c(-c3cccs3)cc(C(=O)N(C)C(C)(C)C)n1CC2 (stereo not drawn) [Example 65c, 8-Methoxy-9-[2-(tetrahydro-pyran-2-yloxy)-ethoxy]-1-thiophen-2-yl-5,6-dihydro-pyrrolo[2,1-α]isoquinoline-3-carboxylic acid tert-butyl-methyl-amide]",102
7,COc1cc2c(cc1C=C(F)F)-c1c(-c3cccs3)cc(C(=O)N(C)C(C)(C)C)n1CC2 [Example 93],3
8,"CCC1CCCN1C(=O)c1cc(-c2cccs2)c2n1CCc1cc(OC)c(OC(C)C)cc1-2 (stereo not drawn) [Example 27, (2-Ethyl-pyrrolidin-1-yl)-(9-isopropoxy-8-methoxy-1-thiophen-2-yl-5,6-dihydro-pyrrolo[2,1-α]isoquinolin-3-yl)-methanone]",16.2
9,"CN(C(=O)c1cc(-c2cccs2)c2n1CCc1ccc(N3CCOC3=O)cc1-2)C(C)(C)C [Example 89, 9-(2-Oxo-oxazolidin-3-yl)-1-thiophen-2-yl-5,6-dihydro-pyrrolo[2,1-α]isoquinoline-3-carboxylic acid tert-butyl-methyl-amide]",245
10,"CCOC(=O)COc1cc2c(cc1OC)CCn1c(C(=O)N(C)C(C)(C)C)cc(-c3cccs3)c1-2 [Example 63, [3-(tert-Butyl-methyl-carbamoyl)-8-methoxy-1-thiophen-2-yl-5,6-dihydro-pyrrolo[2,1-α]isoquinolin-9-yloxy]-acetic acid ethyl ester]",252
11,"COc1cc2c(cc1OC(C)C)-c1c(-c3cccs3)cc(C(=O)N3CCCN(S(=O)(=O)c4cccs4)CC3)n1CC2 [Example 3, (9-Isopropoxy-8-methoxy-1-thiophen-2-yl-5,6-dihydro-pyrrolo[2,1-α]isoquinolin-3-yl)-[4-(thiophene-2-sulfonyl)-[1,4]diazepan-1-yl]-methanone]",4.6
12,"COc1cc2c(cc1OC(C)C)-c1c(-c3cccs3)c(C=O)c(C(=O)N(C)C(C)(C)C)n1CC2 [Example 39, 2-Formyl-9-isopropoxy-8-methoxy-1-thiophen-2-yl-5,6-dihydro-pyrrolo[2,1-α]isoquinoline-3-carboxylic acid tert-butyl-methyl-amide]",2.7
